Measurements: patent US20160045625A1, “[11C] AND [18F] LABELED 1,3-DIPHENYL-5-(PYRIMIDIN-2-YL)-PYRIDIN-2(1H)-ONE DERIVATIVES AND THEIR USE FOR PET IMAGING OF THE AMPA RECEPTOR” (EISAI R&D MANAGEMENT CO., LTD., priority 2013, published 2016)

Key:
AMPA receptor [1] = settings: in vivo PET, rat; cited from earlier work
AMPA receptor [2] = assay: In vitro receptor binding assay ([^3H]perampanel, Ki value measurement); set-up: species or system rat (Sprague-Dawley); settings: rat forebrain membranes, 90 min at 4° C., Scatchard analysis
Protocol: Homogenate of forebrains of rats (Sprague-Dawley) was prepared in ice-cold solution containing 0.32 M sucrose and 0.1 mM EGTA (pH 7.4). Homogenate was centrifuged in 1000 g for 10 min and supernatant was collected. This supernatant was centrifuged in 30000 g for 20 min. Precipitate was suspended in 1 mM EGTA/Tris buffer (pH 8.0) by sonication, subjected osmotic lysis on ice for 10 min and centrifuged in 30000 g for 20 min. This procedure was conducted twice. Precipitate was suspended in 50 mM Tris HCl buffer (pH 7.4) by sonication and centrifuged in 30000 g for 20 min. This procedure was conducted three times. Precipitate was suspended in 50 mM Tris HCl buffer (pH 7.4) by sonication and stocked at −80° C. On the day of binding assay, stocked solution was suspended in 50 mM Tris HCl buffer (pH 7.4) by sonication and centrifuged in 30000 g for 20 min. This procedure was conducted three times. Precipitate was suspended in 50 mM Tris-HCl buffer (pH 7.4) by sonication and used for binding assay.
Receptor solution was re-suspended in binding buffer (50 mM Tris-HCl, pH 7.4) to a final concentration of 0.24 mg tissue eq./assay. The incubation time for [^3H]perampanel on AMPA receptor was 90 min at 4° C. After incubation, membranes were filtered onto GF/B filter presoaked with 0.3% PEI and washed three times with ice-cold wash buffer (same as binding buffer). Each filter was placed in a vial and 6 mL of liquid scintillator reagent (Hionic-Fluor; PerkinElmer Life & Analytical Sciences) were added. Radioactivity was counted (1 min) in a liquid scintillation counter (LSC-6100, Hitachi Aloka Medical, Ltd.).
Saturation isotherms were determined by addition of various concentrations of [^3H]perampanel (1-2000 nM). Nonspecific bindings for [^3H]perampanel was measured in the presence of 15 μM unlabeled compounds. Ki value was calculated by Scatchard analysis of saturation isotherm experiment.

AMPA receptor [3] = assay: In vivo PET blocking study in monkey; set-up: species or system Rhesus monkey; settings: i.v. pretreatment 0.02 to 0.1 mg/kg, 15 min prior to radioligand (Example 4); CTX, HIP, CER, THA, STR
Protocol: FIG. 4. Rhesus monkey PET blocking study of the compound of Example 4. In vivo area under time-radioactivity curves of to the region of interests (CTX, HIP, cerebellum (CER), thalamus (THA), striatum (STR)) in the absence (control) and blockade by pretreatment with the unlabeled compound. Radioactivity is expressed as percentage of standardized uptake value (% SUV) and integrated radioactivity of the specific binding versus reference region (brain stem; BS) from 0 to 40 min during the PET scan.
For the PET blocking study, unlabeled compound (Reference Example 9, 0.1 mg/kg/5 mL to 0.02 mg/kg/5 mL of saline with 10% DMSO, 3 doses) was intravenously administrated via the crural vein as a single slow bolus over 10 min, 15 min prior to radioligand administration. All PET scans were acquired from the same two monkeys (n=2).
Area under time-radioactivity curves of to the region of interests (CTX, HIP, cerebellum (CER), thalamus (THA), STR) in the absence (control) and blockade by pretreatment with Reference Example 9. Radioactivity is expressed as percentage of standardized uptake value (% SUV) and integrated radioactivity from 0 to 40 min during the PET scan.

| Structure (SMILES) | clearance from the CNS (AMPA receptor [1]) | specific binding (AMPA receptor [1]) | Ki (AMPA receptor [2]) [nM] | radioactivity (area under time-radioactivity curves, % SUV, 0 to 40 min) compared to control (AMPA receptor [3]) |
| --- | --- | --- | --- | --- |
| COc1cc2c(cc1O[11CH3])C(c1ccc(Cl)cc1)N(C(C)=O)CC2 (stereo not shown) [N-acetyl-1-(4-chlorophenyl)-6-methoxy-7-[^11C]methoxy-1,2,3,4-tetrahydroisoquinoline] | rapid clearance from the CNS | low specific binding | – | – |
| CNc1cccc(-n2cc(-c3ncccn3)cc(-c3ccccc3C#N)c2=O)c1 [Reference Example 9, 2-(1-(3-(methylamino)phenyl)-2-oxo-5-(pyrimidin-2-yl)-1,2-dihydropyridin-3-yl)benzonitrile] | – | – | 10 | markedly reduced the radioactivity in dose dependent manner |
| N#Cc1ccccc1-c1cc(-c2ncccn2)cn(-c2cccc(F)c2)c1=O [Reference Example 15, 2-(1-(3-fluorophenyl)-2-oxo-5-(pyrimidin-2-yl)-1,2-dihydropyridin-3-yl)benzonitrile] | – | – | 20 | – |
| N#Cc1ccccc1-c1cc(-c2ncccn2)cn(-c2ccc(F)c(N)c2)c1=O [Reference Example 19, 2-(1-(3-amino-4-fluorophenyl)-2-oxo-5-(pyrimidin-2-yl)-1,2-dihydropyridin-3-yl)benzonitrile] | – | – | 5 | – |
| O=c1c(-c2ccccc2F)cc(-c2ncccn2)cn1-c1cccc(CF)c1 [Reference Example 22, 3-(2-fluorophenyl)-1-(3-(fluoromethyl)phenyl)-5-(pyrimidin-2-yl)pyridin-2(1H)-one] | – | – | 22 | – |
